We go through 19 molecules from patent US20240228489A1, “POSITIVE ALLOSTERIC MODULATORS OF THE MUSCARINIC ACETYLCHOLINE RECEPTOR M1” (Vanderbilt University, priority 2021, published 2024).

What is called EC50 is the midpoint of the concentration-response curve. As usually defined, the Emax is the maximal effect, on the per cent scale that the assay sets.

Assay [1] concerns the target T1, human mAChR M1 (Homo sapiens, UniProt P11229).
T1 sequence (P11229 1-460): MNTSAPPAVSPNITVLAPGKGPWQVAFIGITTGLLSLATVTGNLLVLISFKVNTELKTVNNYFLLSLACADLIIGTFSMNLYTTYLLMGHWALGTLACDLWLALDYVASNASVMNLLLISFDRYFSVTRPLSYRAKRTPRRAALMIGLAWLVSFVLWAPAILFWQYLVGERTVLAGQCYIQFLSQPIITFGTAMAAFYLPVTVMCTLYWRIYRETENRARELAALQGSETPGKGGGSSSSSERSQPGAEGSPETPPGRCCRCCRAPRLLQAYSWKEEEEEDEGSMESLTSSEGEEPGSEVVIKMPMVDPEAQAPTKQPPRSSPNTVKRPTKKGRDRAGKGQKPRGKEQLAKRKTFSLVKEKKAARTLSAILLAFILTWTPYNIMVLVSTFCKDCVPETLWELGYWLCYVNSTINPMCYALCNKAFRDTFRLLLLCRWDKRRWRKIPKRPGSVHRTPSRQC
Description: mAChR M1 cell-based functional assay (calcium mobilization), PAM mode: increase in the EC20 acetylcholine response. In a few lines: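 PAM readout is the concentration-dependent rise in the EC20 acetylcholine calcium signal, fitted to a four-parameter logistic (EC50, Emax). Compounds were preincubated from 4 s before ACh at 144 s (EC20) and 230 s (EC80). hM1-expressing CHO-K1 cells loaded with Fluo-4, FDSS ratio read.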

Assay [2] deals with T1, human mAChR M1. Description: mAChR M1 cell-based functional assay (calcium mobilization), agonist mode: compound alone, Emax relative to acetylcholine maximum. Conditions: for Agonist Activity Human M1 EC50 / EC50: human mAChR M1; call rule not given here. In a few lines: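 Agonist activity is the concentration-dependent rise in intracellular calcium (Fluo-4, 1 Hz read) after compound addition, measured before any acetylcholine was added, in stable hM1 CHO-K1 cells. Curves were 11-point, 1:3 dilutions fitted by four-parameter logistic. Emax is given as a fraction of maximal acetylcholine response.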
(In general: Calcium assays in cells follow changes in intracellular calcium, usually with a dye or a luminescent sensor.)

The mark [3] stands for this setting: relative to the maximum for acetylcholine.

`[2H]C1([2H])c2ncccc2C(=O)N1Cc1c(F)cc(-c2ccc(C(F)(F)F)c3nn(C)cc23)cc1F` [Compound 41, 6-(2,6-difluoro-4-(2-methyl-7-(trifluoromethyl)-2H-indazol-4-yl)benzyl)-6,7-dihydro-5H-pyrrolo[3,4-b]pyridin-5-one-7,7-d2]: the EC50 on human mAChR M1 [1] is 604 nM. Further, the figures for the Emax on human mAChR M1 [1] and at human mAChR M1 [2] (setting [3]) were 65% and 2%, respectively. Further, at human mAChR M1 [2], the “Agonist Activity Human M1 EC50” value is given as “Inactive”.

As to `[2H]C1([2H])c2ncccc2C(=O)N1Cc1c(F)cc(-c2ccc(F)c3nn(C)cc23)cc1C1CC1` [Compound 205, 6-(2-cyclopropyl-6-fluoro-4-(7-fluoro-2-methyl-2H-indazol-4-yl)benzyl)-6,7-dihydro-5H-pyrrolo[3,4-b]pyridin-5-one-7,7-d2], the EC50 on human mAChR M1 [1] amounted to 248 nM; at human mAChR M1 [2] it was 5980 nM. For the same molecule, the results for the Emax on human mAChR M1 [1] and on human mAChR M1 [2] (setting [3]) were 86% and 54%, respectively.

For `[2H]C1([2H])c2ncc(O)cc2C(=O)N1Cc1c(F)cc(-c2cccc3nn(C([2H])([2H])[2H])cc23)cc1F` [Compound 141, 6-(2,6-difluoro-4-(2-(methyl-d3)-2H-indazol-4-yl)benzyl)-3-hydroxy-6,7-dihydro-5H-pyrrolo[3,4-b]pyridin-5-one-7,7-d2], the EC50 at human mAChR M1 [1] is 122 nM; at human mAChR M1 [2], 8020 nM. Also, the Emax was found to be 73% on human mAChR M1 [1] and 50% on human mAChR M1 [2] (setting [3]).

For `[2H]C1([2H])c2ncccc2C(=O)N1Cc1c(F)cc(-c2ccc(O[C@H](C)COC)c3nn(C)cc23)cc1F` [Compound 148, (R)-6-(2,6-difluoro-4-(7-((1-methoxypropan-2-yl)oxy)-2-methyl-2H-indazol-4-yl)benzyl)-6,7-dihydro-5H-pyrrolo[3,4-b]pyridin-5-one-7,7-d2], the results for the EC50 on human mAChR M1 [1] and at human mAChR M1 [2] were 540 nM and ≥ 10000 nM, respectively. In addition, the maximal response (Emax) is 81% on human mAChR M1 [1] and 31% at human mAChR M1 [2] (setting [3]).

As to `[2H]C1([2H])c2ncccc2C(=O)N1Cc1c(F)cc(-c2ccc3nn(C([2H])([2H])[2H])cc3c2)cc1F` [Compound 100, 6-(2,6-difluoro-4-(2-(methyl-d3)-2H-indazol-5-yl)benzyl)-6,7-dihydro-5H-pyrrolo[3,4-b]pyridin-5-one-7,7-d2], on human mAChR M1 [1], the EC50 was 214 nM and the Emax worked out at 85%. At human mAChR M1 [2], the “Agonist Activity Human M1 EC50” value is on record as “Inactive”. In addition, on human mAChR M1 [2] (setting [3]), the Emax stood at 6%.

In the case of `[2H]C1([2H])c2ncccc2C(=O)N1Cc1c(F)cc(-c2ccc(OC3CN(CCCC)C3)c3nn(C)cc23)cc1F` [Compound 184, 6-(4-(7-((1-butylazetidin-3-yl)oxy)-2-methyl-2H-indazol-4-yl)-2,6-difluorobenzyl)-6,7-dihydro-5H-pyrrolo[3,4-b]pyridin-5-one-7,7-d2], at human mAChR M1 [1], the EC50 worked out at 512 nM and the Emax turned out to be 87%. Also, on human mAChR M1 [2], the “Agonist Activity Human M1 EC50” value is recorded as “Inactive”. Besides, on human mAChR M1 [2] (setting [3]), the Emax amounted to 5%.

On to `[2H]C1([2H])c2ncccc2C(=O)N1Cc1c(F)cc(-c2cncc3nn(C)cc23)cc1F` [Compound 119, 6-(2,6-difluoro-4-(2-methyl-2H-pyrazolo[3,4-c]pyridin-4-yl)benzyl)-6,7-dihydro-5H-pyrrolo[3,4-b]pyridin-5-one-7,7-d2], for which, at human mAChR M1 [1], the EC50 was ≥ 10000 nM and the Emax was determined as 63%. On human mAChR M1 [2], the “Agonist Activity Human M1 EC50” value is “Inactive”. In addition, on human mAChR M1 [2] (setting [3]), the Emax was 3%.

Consider `[2H]C1([2H])c2ncccc2C(=O)N1Cc1c(F)cc(-c2cc(F)c(Cl)c3nn(C)cc23)cc1F` [Compound 245, 6-(4-(7-chloro-6-fluoro-2-methyl-2H-indazol-4-yl)-2,6-difluorobenzyl)-6,7-dihydro-5H-pyrrolo[3,4-b]pyridin-5-one-7,7-d2], for which the EC50 at human mAChR M1 [1] is > 10000 nM. The Emax on human mAChR M1 [1] stood at 47%; on human mAChR M1 [2] (setting [3]), 1%. Besides, at human mAChR M1 [2], the “Agonist Activity Human M1 EC50” value was “Inactive”.

For the molecule `[2H]C1([2H])c2ncccc2C(=O)N1Cc1c(F)cc(-c2cc(Cl)cc3nn(C([2H])([2H])[2H])cc23)cc1F` [Compound 85, 6-(4-(6-chloro-2-(methyl-d3)-2H-indazol-4-yl)-2,6-difluorobenzyl)-6,7-dihydro-5H-pyrrolo[3,4-b]pyridin-5-one-7,7-d2], at human mAChR M1 [1], the EC50 worked out at 654 nM. Moreover, the Emax at human mAChR M1 [1] stood at 51%; on human mAChR M1 [2] (setting [3]), 2%. For the same molecule, the “Agonist Activity Human M1 EC50” value on human mAChR M1 [2] is reported as “Inactive”.

For `[2H]C1([2H])c2ncccc2C(=O)N1Cc1c(F)cc(-c2cc(F)c(Cl)c3nn(C)cc23)cc1F` [Compound 77, 6-(4-(7-chloro-6-fluoro-2-methyl-2H-indazol-4-yl)-2,6-difluorobenzyl)-6,7-dihydro-5H-pyrrolo[3,4-b]pyridin-5-one-7,7-d2], on human mAChR M1 [1], the EC50 came out at 1350 nM and the “PAM Activity Emax” value was 47%. For the same molecule, at human mAChR M1 [2], the “Agonist Activity Human M1 EC50” value is “Inactive”. The “Agonist Activity Emax” value at human mAChR M1 [2] (setting [3]) worked out at 1%.

On to `[2H]C1([2H])c2ncccc2C(=O)N1Cc1c(F)cc(-c2cnc(OC)c3c2cnn3C)cc1F` [Compound 253, 6-(2,6-difluoro-4-(7-methoxy-1-methyl-1H-pyrazolo[3,4-c]pyridin-4-yl)benzyl)-6,7-dihydro-5H-pyrrolo[3,4-b]pyridin-5-one-7,7-d2], for which, on human mAChR M1 [1], the EC50 is > 10000 nM and the Emax was 27%. The “Agonist Activity Human M1 EC50” value at human mAChR M1 [2] is on record as “Inactive”. At human mAChR M1 [2] (setting [3]), the Emax was found to be 2%.

On to `[2H]C1([2H])c2ncccc2C(=O)N1Cc1ccc(-c2cccc3nn(C)cc23)cc1C` [Compound 29, 6-(2-methyl-4-(2-methyl-2H-indazol-4-yl)benzyl)-6,7-dihydro-5H-pyrrolo[3,4-b]pyridin-5-one-7,7-d2], for which the EC50 on human mAChR M1 [1] came to 632 nM; on human mAChR M1 [2] it was 7860 nM. Besides, the Emax at human mAChR M1 [1] stood at 81%; at human mAChR M1 [2] (setting [3]), 33%.

`[2H]C1([2H])c2ncccc2C(=O)N1Cc1c(C)cc(-c2ccc(F)c3nn(C)cc23)cc1F` [Compound 198, 6-(2-fluoro-4-(7-fluoro-2-methyl-2H-indazol-4-yl)-6-methylbenzyl)-6,7-dihydro-5H-pyrrolo[3,4-b]pyridin-5-one-7,7-d2]: the figures for the EC50 at human mAChR M1 [1] and on human mAChR M1 [2] were 347 nM and 5600 nM, respectively. Also, the maximal effect (Emax) was determined as 79% at human mAChR M1 [1] and 30% on human mAChR M1 [2] (setting [3]).

For `[2H]C1([2H])c2ncccc2C(=O)N1Cc1c(F)cc(-c2ccc(OC(C)C)c3nn(C([2H])([2H])[2H])cc23)cc1F` [Compound 99, 6-(2,6-difluoro-4-(7-isopropoxy-2-(methyl-d3)-2H-indazol-4-yl)benzyl)-6,7-dihydro-5H-pyrrolo[3,4-b]pyridin-5-one-7,7-d2], the values for the EC50 at human mAChR M1 [1] and on human mAChR M1 [2] were 285 nM and 5800 nM, respectively. For the same molecule, the figures for the Emax at human mAChR M1 [1] and on human mAChR M1 [2] (setting [3]) were 83% and 25%, respectively.

As for `[2H]C([2H])([2H])Oc1cnc2c(c1)C(=O)N(Cc1ccc(-c3ccc4nn(C)cc4c3)cc1F)C2([2H])[2H]` [Compound 111, 6-(2-fluoro-4-(2-methyl-2H-indazol-5-yl)benzyl)-3-(methoxy-d3)-6,7-dihydro-5H-pyrrolo[3,4-b]pyridin-5-one-7,7-d2], on human mAChR M1 [1], the EC50 is 161 nM and the Emax amounted to 65%. For the same molecule, the “Agonist Activity Human M1 EC50” value on human mAChR M1 [2] is recorded as “Inactive”. The Emax on human mAChR M1 [2] (setting [3]) came to 2%.

Regarding `[2H]C1([2H])c2ncccc2C(=O)N1Cc1ccc(-c2cccc3nn(C([2H])([2H])[2H])cc23)cc1F` [Compound 53, 6-(2-fluoro-4-(2-(methyl-d3)-2H-indazol-4-yl)benzyl)-6,7-dihydro-5H-pyrrolo[3,4-b]pyridin-5-one-7,7-d2], the EC50 at human mAChR M1 [1] was 325 nM; on human mAChR M1 [2] it was > 10000 nM. For the same molecule, the Emax at human mAChR M1 [1] was 84%; at human mAChR M1 [2] (setting [3]), 9%.

On to `[2H]C1([2H])c2ncccc2C(=O)N1Cc1c(F)cc(-c2ccc(OC)c3n[nH]cc23)cc1F` [Compound 38, 6-(2,6-difluoro-4-(7-methoxy-2H-indazol-4-yl)benzyl)-6,7-dihydro-5H-pyrrolo[3,4-b]pyridin-5-one-7,7-d2], for which the EC50 on human mAChR M1 [1] was 436 nM; at human mAChR M1 [2], > 10000 nM. The values for the Emax on human mAChR M1 [1] and at human mAChR M1 [2] (setting [3]) were 69% and 2%, respectively.

Regarding `[2H]C1([2H])c2ncccc2C(=O)N1Cc1c(F)cc(-c2ccc(OCCOC)c3nn(C)cc23)cc1C1CC1` [Compound 203, 6-(2-cyclopropyl-6-fluoro-4-(7-(2-methoxyethoxy)-2-methyl-2H-indazol-4-yl)benzyl)-6,7-dihydro-5H-pyrrolo[3,4-b]pyridin-5-one-7,7-d2], the results for the EC50 at human mAChR M1 [1] and at human mAChR M1 [2] were 815 nM and 2560 nM, respectively. The Emax is 75% on human mAChR M1 [1] and 63% on human mAChR M1 [2] (setting [3]).

With `[2H]C1([2H])c2ncccc2C(=O)N1Cc1ccc(-c2ccc(OC3CN(C(=O)OC(C)(C)C)C3)c3nn(C)cc23)cc1F` [Compound 176, tert-butyl 3-((4-(3-fluoro-4-((5-oxo-5,7-dihydro-6H-pyrrolo[3,4-b]pyridin-6-yl-7,7-d2)methyl)phenyl)-2-methyl-2H-indazol-7-yl)oxy)azetidine-1-carboxylate], on human mAChR M1 [1], the EC50 came out at 1320 nM and the maximal effect (Emax) amounted to 60%. In addition, on human mAChR M1 [2], the “Agonist Activity Human M1 EC50” value was “Inactive”. The Emax on human mAChR M1 [2] (setting [3]) was 2%.
